Each structure is given as a SMILES string. Where only a bound is given, the exact number is not on record here.

In general, IC50 refers to the concentration at which inhibition is half-maximal. A lower IC50 goes with greater potency.

The target of one assay is T1, proteasome chymotrypsin-like activity (CT-L) (Homo sapiens, UniProt P28074).
T1 construct: endogenous in cells
T1 sequence (P28074 60-263): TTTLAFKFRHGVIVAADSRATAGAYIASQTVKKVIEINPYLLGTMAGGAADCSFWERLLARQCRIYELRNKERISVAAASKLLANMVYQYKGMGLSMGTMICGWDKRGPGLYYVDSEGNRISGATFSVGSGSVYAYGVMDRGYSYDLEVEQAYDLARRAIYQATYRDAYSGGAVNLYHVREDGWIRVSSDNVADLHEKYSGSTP
Description: Cell-based CT-L proteasome activity inhibition.
Settings: not given
Take `CC(C)C[C@H](NC(=O)[C@H](CCc1ccccc1)NC(=O)CO)C(=O)N[C@@H](Cc1ccccc1)C(=O)N[C@@H](CC(C)C)C(=O)[C@@]1(C)CO1` [Compound 1]: the IC50 is under 100 nM.
The same measure, in the same setting: with `CC(C)C[C@H](NC(=O)[C@H](CCc1ccccc1)NC(=O)CN1CCCCC1)C(=O)N[C@@H](Cc1ccccc1)C(=O)N[C@@H](CC(C)C)C(=O)[C@@]1(C)CO1` [Compound 4] the figure was under 100 nM; with `CC(C)C[C@H](NC(=O)[C@H](CCc1ccccc1)NC(=O)CCCN(C)C)C(=O)N[C@@H](Cc1ccccc1)C(=O)N[C@@H](CC(C)C)C(=O)[C@@]1(C)CO1` [Compound 7], under 150 nM.
The same measure, in the same setting: next, `Cc1nn(C)c(C)c1S(=O)(=O)N[C@@H](CCc1ccccc1)C(=O)N[C@@H](CC(C)C)C(=O)N[C@@H](Cc1ccccc1)C(=O)N[C@@H](CC(C)C)C(=O)[C@@]1(C)CO1` [Compound 8]: under 100 nM.

The target in another assay is 20S proteasome chymotrypsin-like activity (CT-L) (Homo sapiens, UniProt P20618+P28074). Description: 20S proteasome chymotrypsin-like (CT-L) activity inhibition. Format: biochemical. The following applies: chymotrypsin-like activity of 20S proteasome. As to the method:
The enzyme inhibitor analogs and prodrugs disclosed herein are useful in part because they inhibit the action of the 20S proteasome. […] That is, the instant compounds show selectivities for the 20S proteasome over other proteases such as cathepsins, calpains, papain, chymotrypsin, trypsin, tripeptidyl pepsidase II. The selectivities of the enzyme inhibitors for 20S proteasome are such that at concentrations below about 50 μM, the enzyme inhibitors show inhibition of the catalytic activity of the 20S proteasome, while not showing inhibition of the catalytic activity of other proteases such as cathepsins, calpains, papain, chymotrypsin, trypsin, tripeptidyl pepsidase II. In preferred embodiments, the enzyme inhibitors show inhibition of the catalytic activity of the 20S proteasome at concentrations below about 10 μM, while not showing inhibition of the catalytic activity of other proteases at these concentrations. In even more preferred embodiments, the enzyme inhibitors show inhibition of the catalytic activity of the 20S proteasome at concentrations below about 1 μM, while not showing inhibition of the catalytic activity of other proteases at these concentrations. Enzyme kinetic assays are disclosed in U.S. application Ser. No. 09/569,748, Example 2 and Stein et al., Biochem. (1996), 35, 3899-3908.
The chymotrypsin-like activity of 20S proteasome is characterized by cleavage of peptides in the immediate vicinity of large hydrophobic residues. In particular, the chymotrypsin-like activity of Ntn hydrolases can be determined by cleavage of a standard substrate. Examples of such substrates are known in the art. For example, a leucylleucylvalinyltyrosine derivative can be used. Enzyme kinetic assays are disclosed in U.S. application Ser. No. 09/569,748, Example 2 and Stein et al., Biochem. (1996), 35, 3899-3908.
As for `CC(C)C[C@H](NC(=O)[C@H](CCc1ccccc1)NC(=O)CO)C(=O)N[C@@H](Cc1ccccc1)C(=O)N[C@@H](CC(C)C)C(=O)[C@@]1(C)CO1` [Compound 1], the IC50 is under 50 nM.
Still for that read-out and setting: next, `CC(C)C[C@H](NC(=O)[C@H](CCc1ccccc1)NC(=O)CN1CCCCC1)C(=O)N[C@@H](Cc1ccccc1)C(=O)N[C@@H](CC(C)C)C(=O)[C@@]1(C)CO1` [Compound 4]: under 100 nM.
With `CC(C)C[C@H](NC(=O)[C@H](CCc1ccccc1)NC(=O)CCCN(C)C)C(=O)N[C@@H](Cc1ccccc1)C(=O)N[C@@H](CC(C)C)C(=O)[C@@]1(C)CO1` [Compound 7], the IC50 is under 50 nM.
Compound `Cc1nn(C)c(C)c1S(=O)(=O)N[C@@H](CCc1ccccc1)C(=O)N[C@@H](CC(C)C)C(=O)N[C@@H](Cc1ccccc1)C(=O)N[C@@H](CC(C)C)C(=O)[C@@]1(C)CO1` [Compound 8] registered an IC50 of under 100 nM.

The values above are taken from patent US8207127B2, “Compounds for enzyme inhibition” (Onyx Technologies, Inc., priority 2004, dated 2012).
